Converted amounts (≈) assume the structure as drawn.
What was measured:
Assay type in all cases: cell-based
[1] = test system: Staphylococcus aureus (ATCC 29213); experiment: MIC susceptibility test, microdilution with MTT readout; conditions: Staphylococcus aureus ATCC29213; for MIC: read-out: MIC SA
How it was run: (§1)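 Broth microdilution in cation-adjusted Mueller-Hinton broth, 12-step two-fold series from 5 μg/mL to […], mixed 1:1 with 10^6 CFU/mL cell suspension and incubated 24 h at 37 °C. MTT (1 mg/mL solution) is then added for 30 min (S. aureus, MRSA) or 2 h (E. faecalis strains). MIC = lowest concentration inhibiting growth.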

[2] = test system: Methicillin resistant Staphylococcus aureus (ATCC 33591); experiment: as above; conditions: Staphylococcus aureus ATCC3359, Methicillin resistance; for MIC: ATCC 3359 / ATCC 33591 / MRSA, read-out: MIC MRSA
How it was run: as §1

[3] = test system: Bacillus cereus (ATCC 11778); experiment: as above; conditions: for MIC: Bacillus cereus, ATCC11778, read-out: MIC BC; for MIC BC: Bacillus ceres ATCC11778
How it was run: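 Bacillus cereus ATCC® 11778 susceptibility was measured by broth microdilution in 96-well microplates using Cation Adjusted Mueller-Hinton broth. Samples were diluted two-fold from 5 μg/mL over 12 steps. Each well combined 100 μL of cell suspension (10^6 CFU/mL) with 100 μL of antibiotic solution and was incubated at 37° C. for 24 h. Then 50 μL of MTT (1 mg/mL) was added for 30 min, and MIC (μg/mL) was read as the lowest concentration inhibiting growth.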

[4] = test system: Enterococcus faecalis (ATCC 29212); experiment: as above; conditions: Enterococcus faecalis ATCC29212; for MIC: read-out: MIC EF
How it was run: as §1

[5] = test system: gentamicin, streptmycin, vancomycin resistant Enterococcus faecalis (ATCC 51299); experiment: microbe, parasite or virus in culture; conditions: for MIC: Enterococcus faecalis, ATCC51299, read-out: MIC VREF; for MIC VREF: Enterococcus faecalis ATCC51299, vancomycin resistance
How it was run: as §1

[6] = test system: Enterococcus faecalis CL5244, VanB; experiment: MIC susceptibility test; conditions: Enterococcus faecalis CL5244, VanB; for MIC: read-out: MIC CL5244
How it was run: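 MTT-based broth microdilution in cation-adjusted Mueller-Hinton broth; two-fold 12-step dilutions […], inoculum 10^6 CFU/mL, 37° C for 24 h.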

[7] = test system: Enterococcus faecium CL5137, VanA; experiment: MIC susceptibility test; conditions: Enterococcus faecium CL5137, VanA; for MIC: read-out: MIC CL5137

SMILES	MIC [1]	MIC [2]	MIC [3]	MIC [4]	MIC [5]	MIC [6]	MIC [7]	MIC SA [1]	MIC MRSA [2]	MIC BC [3]	MIC EF [4]	MIC VREF [5]	MIC CL5244 [6]	MIC CL5137 [7]
CN[C@@H](CC(C)C)C(=O)N[C@H]1C(=O)N[C@@H](CC(N)=O)C(=O)N[C@H]2C(=O)NC3C(=O)N[C@H](C(=O)N[C@@H](C(=O)O)c4cc(O)cc(O)c4-c4cc3ccc4O)[C@H](O)c3ccc(c(Cl)c3)Oc3cc2cc(c3OC2OC(COS(=O)(=O)c3c(C)cc(C)cc3C)C(O)C(O)C2OC2CC(C)(NCc3ccc(-c4ccc(Cl)cc4)cc3)C(O)C(C)O2)Oc2ccc(cc2Cl)[C@H]1O (stereo partly shown) [XLII, N-4-(4-Chlorophenyl)benzylvancosamine-glucose-C6-2-mesitylenesulfonated Vancomycin]	> 5 µg/mL	> 5 µg/mL	1.9 µg/mL (≈ 1.04 µM)	1 µg/mL (≈ 0.546 µM)	1.9 µg/mL (≈ 1.04 µM)	0.8 µg/mL (≈ 0.437 µM)	6.3 µg/mL (≈ 3.44 µM)							
CN[C@@H](CC(C)C)C(=O)N[C@H]1C(=O)N[C@@H](CC(N)=O)C(=O)N[C@H]2C(=O)NC3C(=O)N[C@H](C(=O)N[C@@H](C(=O)O)c4cc(O)cc(O)c4-c4cc3ccc4O)[C@H](O)c3ccc(c(Cl)c3)Oc3cc2cc(c3OC2OC(CNN)C(O)C(O)C2OC2CC(C)(N)C(O)C(C)O2)Oc2ccc(cc2Cl)[C@H]1O (stereo partly shown) [XLIV, Glucose-C6-hydrazine Vancomycin]	0.63 µg/mL (≈ 0.431 µM)	1.3 µg/mL (≈ 0.888 µM)	1.3 µg/mL (≈ 0.888 µM)	1.3 µg/mL (≈ 0.888 µM)	2.5 µg/mL (≈ 1.71 µM)	50 µg/mL (≈ 34.2 µM)	> 50 µg/mL							
CCCCCCCCCCNC1(C)CC(OC2C(Oc3c4cc5cc3Oc3ccc(cc3Cl)C(O)C3NC(=O)C(NC(=O)C5NC(=O)C(CC(N)=O)NC(=O)C(NC(=O)C(CC(C)C)NC)C(O)c5ccc(c(Cl)c5)O4)c4ccc(O)c(c4)-c4c(O)cc(O)cc4C(C(=O)O)NC3=O)OC(CNCc3ccc(-c4ccc(Cl)cc4)o3)C(O)C2O)OC(C)C1O (stereo not shown) [XLIX, Glucose-C6-N-5-(4-chlorophenyl)furan-1-methylene-vancosamine-N-decyl Vancomycin]								5.0 µg/mL (≈ 2.81 µM)	2.5 µg/mL (≈ 1.41 µM)	3.8 µg/mL (≈ 2.14 µM)	1.9 µg/mL (≈ 1.07 µM)	1.3 µg/mL (≈ 0.731 µM)	0.8 µg/mL (≈ 0.45 µM)	13 µg/mL (≈ 7.31 µM)
CN[C@@H](CC(C)C)C(=O)N[C@H]1C(=O)N[C@@H](CC(N)=O)C(=O)N[C@H]2C(=O)NC3C(=O)N[C@H](C(=O)N[C@@H](C(=O)O)c4cc(O)cc(O)c4-c4cc3ccc4O)[C@H](O)c3ccc(c(Cl)c3)Oc3cc2cc(c3OC2OC(CN=[N+]=[N-])C(O)C(O)C2OC2CC(C)(N)C(O)C(C)O2)Oc2ccc(cc2Cl)[C@H]1O (stereo partly shown) [XLVI, Glucose-C6-azide Vancomycin]	0.63 µg/mL (≈ 0.427 µM)	1.3 µg/mL (≈ 0.882 µM)	1 µg/mL (≈ 0.678 µM)	1.3 µg/mL (≈ 0.882 µM)	2.5 µg/mL (≈ 1.7 µM)	25 µg/mL (≈ 17 µM)	> 50 µg/mL							
CNC(CC(C)C)C(=O)NC1C(=O)NC(CC(N)=O)C(=O)NC2C(=O)NC3C(=O)NC(C(=O)NC(C(=O)O)c4cc(O)cc(O)c4-c4cc3ccc4O)C(O)c3ccc(c(Cl)c3)Oc3cc2cc(c3OC2OC(CN)C(O)C(O)C2OC2CC(C)(N)C(O)C(C)O2)Oc2ccc(cc2Cl)C1O (stereo not shown) [XLVII, Glucose-C6-amine Vancomycin]								0.63 µg/mL (≈ 0.435 µM)	0.32 µg/mL (≈ 0.221 µM)	1.0 µg/mL (≈ 0.69 µM)	1.9 µg/mL (≈ 1.31 µM)	1 µg/mL (≈ 0.69 µM)	25 µg/mL (≈ 17.3 µM)	50< μg/mL
CNC(CC(C)C)C(=O)NC1C(=O)NC(CC(N)=O)C(=O)NC2C(=O)NC3C(=O)NC(C(=O)NC(C(=O)O)c4cc(O)cc(O)c4-c4cc3ccc4O)C(O)c3ccc(c(Cl)c3)Oc3cc2cc(c3OC2OC(CNCc3ccc(-c4ccc(Cl)cc4)cc3)C(O)C(O)C2OC2CC(C)(N)C(O)C(C)O2)Oc2ccc(cc2Cl)C1O (stereo not shown) [XXIX, Glucose-C6-N-4-(4-chlorophenyl)benzyl Vancomycin]								0.63 µg/mL (≈ 0.382 µM)	0.63 µg/mL (≈ 0.382 µM)	0.63 µg/mL (≈ 0.382 µM)	0.63 µg/mL (≈ 0.382 µM)	0.63 µg/mL (≈ 0.382 µM)	0.6 µg/mL (≈ 0.364 µM)	50 µg/mL (≈ 30.3 µM)
CNC(CC(C)C)C(=O)NC1C(=O)NC(CC(N)=O)C(=O)NC2C(=O)NC3C(=O)NC(C(=O)NC(C(=O)O)c4cc(O)cc(O)c4-c4cc3ccc4O)C(O)c3ccc(c(Cl)c3)Oc3cc2cc(c3OC2OC(CNCc3ccc(-c4ccc(Cl)cc4)o3)C(O)C(O)C2OC2CC(C)(N)C(O)C(C)O2)Oc2ccc(cc2Cl)C1O (stereo not shown) [XXX, Glucose-C6-N-5-(4-chlorophenyl)furan-1-methylene Vancomycin]								0.32 µg/mL (≈ 0.195 µM)	0.32 µg/mL (≈ 0.195 µM)	0.63 µg/mL (≈ 0.384 µM)	0.63 µg/mL (≈ 0.384 µM)	0.63 µg/mL (≈ 0.384 µM)	1.6 µg/mL (≈ 0.976 µM)	50< μg/mL
CN[C@@H](CC(C)C)C(=O)N[C@H]1C(=O)N[C@@H](CC(N)=O)C(=O)N[C@H]2C(=O)NC3C(=O)N[C@H](C(=O)N[C@@H](C(=O)O)c4cc(O)cc(O)c4-c4cc3ccc4O)[C@H](O)c3ccc(c(Cl)c3)Oc3cc2cc(c3OC2OC(CNCc3cc(Cl)ccc3O)C(O)C(O)C2OC2CC(C)(N)C(O)C(C)O2)Oc2ccc(cc2Cl)[C@H]1O (stereo partly shown) [XXXIX, Glucose-C6-5-chloro-2-hydroxy-benzylamine Vancomycin]	1.3 µg/mL (≈ 0.818 µM)	1.3 µg/mL (≈ 0.818 µM)	1.3 µg/mL (≈ 0.818 µM)	2.5 µg/mL (≈ 1.57 µM)	> 5 µg/mL	25 µg/mL (≈ 15.7 µM)	> 50 µg/mL							
CNC(CC(C)C)C(=O)NC1C(=O)NC(CC(N)=O)C(=O)NC2C(=O)NC3C(=O)NC(C(=O)NC(C(=O)O)c4cc(O)cc(O)c4-c4cc3ccc4O)C(O)c3ccc(c(Cl)c3)Oc3cc2cc(c3OC2OC(CNC(=O)c3cnc4ccccc4n3)C(O)C(O)C2OC2CC(C)(N)C(O)C(C)O2)Oc2ccc(cc2Cl)C1O (stereo not shown) [XXXVII, Glucose-C6-N-2-quinoxaloyl Vancomycin]								0.32 µg/mL (≈ 0.199 µM)	0.63 µg/mL (≈ 0.393 µM)	0.32 µg/mL (≈ 0.199 µM)	0.32 µg/mL (≈ 0.199 µM)	0.32 µg/mL (≈ 0.199 µM)	1.6 µg/mL (≈ 0.997 µM)	50< μg/mL
CNC(CC(C)C)C(=O)NC1C(=O)NC(CC(N)=O)C(=O)NC2C(=O)NC3C(=O)NC(C(=O)NC(C(=O)O)c4cc(O)cc(O)c4-c4cc3ccc4O)C(O)c3ccc(c(Cl)c3)Oc3cc2cc(c3OC2OC(CNC(=O)c3ccc(-c4ccc(Cl)cc4)cc3)C(O)C(O)C2OC2CC(C)(N)C(O)C(C)O2)Oc2ccc(cc2Cl)C1O (stereo not shown) [XXXVIII, Glucose-C6-N-4-(4-chlorophenyl)benzoyl Vancomycin]								1.0 µg/mL (≈ 0.601 µM)	0.63 µg/mL (≈ 0.379 µM)	0.32 µg/mL (≈ 0.192 µM)	0.32 µg/mL (≈ 0.192 µM)	0.16 µg/mL (≈ 0.0962 µM)	0.4 µg/mL (≈ 0.241 µM)	50< μg/mL
